doi:10.1101/2021.10.07.463234v2 (biorxiv, 2021)
Structures can show the parent of a compound that is named as a salt.

Molecular target: SARS-CoV-2 Mac1 (Severe acute respiratory syndrome coronavirus 2, UniProt P0DTD1)
Test: biochemical
Details: 100 µM; inhibitor

Row | Compound | %inhibition
1 | CC1=C(C(=O)O)N2C(=O)[C@@H](NC(=O)[C@H](N)C3=CCC=CC3)[C@H]2SC1 [Cefradine] | 0.656%
2 | CO/N=C(\C(=O)N[C@@H]1C(=O)N2C(C(=O)O)=C(CSC(=O)c3ccco3)CS[C@H]12)c1csc(N)n1 [Ceftiofur HCl] | 20.8%
3 | CO/N=C(\C(=O)N[C@@H]1C(=O)N2C(C(=O)O)=C(CSC(=O)c3ccco3)CS[C@H]12)c1csc(N)n1 [Ceftiofur] | 0%
4 | CO/N=C(\C(=O)N[C@@H]1C(=O)N2C(C(=O)O)=C(CSc3nc(=O)c(O)nn3C)CS[C@H]12)c1csc(N)n1 [Ceftriaxone Sodium Trihydrate] | 0.1034%
5 | CO/N=C(\C(=O)N[C@@H]1C(=O)N2C(C(=O)O)=C(CSc3nc(=O)c(O)nn3C)CS[C@H]12)c1csc(N)n1 [Ceftriaxone Sodium] | 17.28%
6 | CC1=C(C(=O)O)N2C(=O)[C@@H](NC(=O)[C@H](N)C3=CCC=CC3)[C@H]2SC1 [Cephradine monohydrate] | 0%
7 | NC(=NCCCCCCN=C(N)/N=C(\N)Nc1ccc(Cl)cc1)/N=C(\N)Nc1ccc(Cl)cc1 [Chlorhexidine?2HCl] | 7.76%
8 | CCN(CC)CCCC(C)Nc1ccnc2cc(Cl)ccc12 (stereo not shown) [Chloroquine Phosphate] | 4.168%
9 | CN(C)CC/C=C1/c2ccccc2Sc2ccc(Cl)cc21 [Chlorprothixene hydrochloride] | 0%
10 | CN(C)CC/C=C1/c2ccccc2Sc2ccc(Cl)cc21 [Chlorprothixene] | 13.67%
11 | Cc1cc(C2CCCCC2)n(O)c(=O)c1 [Ciclopirox ethanolamine] | 12.57%
12 | COc1ccc(C[C@@H]2c3cc(OC)c(OC)cc3CC[N@+]2(C)CCC(=O)OCCCCCOC(=O)CC[N@@+]2(C)CCc3cc(OC)c(OC)cc3[C@H]2Cc2ccc(OC)c(OC)c2)cc1OC [Cisatracurium Besylate] | 1.897%

Same assay, conditions: read-out: %inhibition

Row | Compound | inhibition at 100 µM
13 | CO[C@@]1(NC(=O)Cc2cccs2)C(=O)N2C(C(=O)O)=C(COC(N)=O)CS[C@@H]21 [Cefoxitin sodium] | 0%
14 | CO/N=C(\C(=O)N[C@@H]1C(=O)N2C(C(=O)[O-])=C(C[n+]3ccn4ncccc43)CS[C@H]12)c1nsc(N)n1 [Cefozopran hydrochloride] | 8.9%
15 | Cc1cc(O)c(C(=O)N[C@@H](C(=O)N[C@@H]2C(=O)N3C(C(=O)O)=C(CSc4nnnn4C)CS[C@H]23)c2ccc(O)cc2)cn1 [Cefpiramide sodium] | 0%
16 | CO/N=C(\C(=O)N[C@@H]1C(=O)N2C(C(=O)[O-])=C(C[n+]3cccc4c3CCC4)CS[C@H]12)c1csc(N)n1 [Cefpirome sulfate] | 0%
17 | COCC1=C(C(=O)OC(C)OC(=O)OC(C)C)N2C(=O)[C@@H](NC(=O)/C(=N\OC)c3csc(N)n3)[C@H]2SC1 (stereo partly shown) [Cefpodoxime proxetil] | 13.2%
18 | CC(C)(O/N=C(\C(=O)N[C@@H]1C(=O)N2C(C(=O)[O-])=C(C[n+]3ccccc3)CS[C@H]12)c1csc(N)n1)C(=O)O [Ceftazidime Pentahydrate] | 0%
19 | Nc1nc(/C(=C/CC(=O)O)C(=O)N[C@@H]2C(=O)N3C(C(=O)O)=CCS[C@H]23)cs1 [Ceftibuten dihydrate] | 10.7%
20 | CO/N=C(\C(=O)N[C@@H]1C(=O)N2C(C(=O)O)=CCS[C@H]12)c1csc(N)n1 [Ceftizoxime] | 12.3%
21 | CO/N=C(\C(=O)N[C@@H]1C(=O)N2C(C(=O)OC(C)OC(C)=O)=C(COC(N)=O)CS[C@H]12)c1ccco1 (stereo partly shown) [Cefuroxime axetil] | 0%
22 | CO/N=C(\C(=O)N[C@@H]1C(=O)N2C(C(=O)O)=C(COC(N)=O)CS[C@H]12)c1ccco1 [Cefuroxime sodium] | 0%
23 | Cc1ccc(-c2cc(C(F)(F)F)nn2-c2ccc(S(N)(=O)=O)cc2)cc1 [Celecoxib] | 10.4%
24 | CC1=C(C(=O)O)N2C(=O)[C@@H](NC(=O)[C@H](N)c3ccccc3)[C@H]2SC1 [Cephalexin] | 0%
25 | CC(=O)OCC1=C(C(=O)O)N2C(=O)[C@@H](NC(=O)Cc3cccs3)[C@H]2SC1 [Cephalothin] | 8.54%
26 | CC(=O)OCC1=C(C(=O)O)N2C(=O)[C@@H](NC(=O)CSc3ccncc3)[C@H]2SC1 [Cephapirin Sodium] | 0%
27 | COc1ccc2cc1Oc1ccc(cc1)C[C@H]1c3c(cc4c(c3Oc3cc5c(cc3OC)CCN(C)[C@@H]5C2)OCO4)CCN1C [Cepharanthine] | 18.2%
28 | CCS(=O)(=O)N1CCN(c2ccc(Nc3ncc(C(N)=O)c(NC4CC4)n3)cc2)CC1 [Cerdulatinib (PRT062070, PRT2070)] | 15.9%
29 | Cc1cc(Nc2ncc(Cl)c(Nc3ccccc3S(=O)(=O)C(C)C)n2)c(OC(C)C)cc1C1CCNCC1 [Ceritinib (LDK378)] | 0%
30 | CCCCCCCCCCCCCCCCOc1nc2ccc(C)cc2c(=O)o1 [Cetilistat] | 8.35%
31 | O=C(O)COCCN1CCN(C(c2ccccc2)c2ccc(Cl)cc2)CC1 (stereo not shown) [Cetirizine DiHCl] | 1.2%
32 | CCCCCCCCCCCCCCCC[N+](C)(C)C [Cetrimonium Bromide (CTAB)] | 25.1%
33 | C[C@H](CCC(=O)O)[C@H]1CC[C@H]2[C@@H]3[C@H](O)C[C@@H]4C[C@H](O)CC[C@]4(C)[C@H]3CC[C@]12C [Chenodeoxycholic Acid] | 0%

Row | Compound | inhibition at 100 µM
34 | O=C(N[C@H](CO)[C@H](O)c1ccc([N+](=O)[O-])cc1)C(Cl)Cl [Chloramphenicol] | 0%
35 | NC(=NCCCCCCN=C(N)/N=C(\N)Nc1ccc(Cl)cc1)/N=C(\N)Nc1ccc(Cl)cc1 [Chlorhexidine] | 10%
36 | CC(=O)O[C@]1(C(C)=O)CC[C@H]2[C@@H]3C=C(Cl)C4=CC(=O)CC[C@]4(C)[C@H]3CC[C@@]21C [Chlormadinone acetate] | 0%
37 | CN1C(=O)CCS(=O)(=O)C1c1ccc(Cl)cc1 (stereo not shown) [Chlormezanone] | 20.4%
38 | Cc1cc(O)ccc1Cl [Chlorocresol] | 24.2%
39 | CCN(CC)CCOC(=O)c1ccc(N)cc1Cl [Chloroprocaine HCl] | 0%
40 | NS(=O)(=O)c1cc2c(cc1Cl)N=CNS2(=O)=O [Chlorothiazide] | 0%
41 | COc1ccc(C(Cl)=C(c2ccc(OC)cc2)c2ccc(OC)cc2)cc1 [Chlorotrianisene] | 0%
42 | Oc1c(Cl)cc(Cl)c2cccnc12 [Chloroxine] | 10.2%
43 | Cc1cc(O)cc(C)c1Cl [Chloroxylenol] | 0%
44 | CN(C)CCC(c1ccc(Cl)cc1)c1ccccn1 (stereo not shown) [Chlorpheniramine Maleate] | 6.37%
45 | CN(C)CCCN1c2ccccc2Sc2ccc(Cl)cc21 [Chlorpromazine HCl] | 0%
46 | CCCNC(=O)NS(=O)(=O)c1ccc(Cl)cc1 [Chlorpropamide] | 0%
47 | Cc1ccc2c(Cl)cc(Cl)c(O)c2n1 [Chlorquinaldol] | 1.48%
48 | CN(C)[C@@H]1C(O)=C(C(N)=O)C(=O)[C@@]2(O)C(O)=C3C(=O)c4c(O)ccc(Cl)c4[C@@](C)(O)[C@H]3C[C@@H]12 [Chlortetracycline HCl] | 1.82%
49 | NS(=O)(=O)c1cc(C2(O)NC(=O)c3ccccc32)ccc1Cl (stereo not shown) [Chlorthalidone] | 1.46%
50 | C[C@H](CCC(=O)O)[C@H]1CC[C@H]2[C@@H]3[C@H](O)C[C@@H]4C[C@H](O)CC[C@]4(C)[C@H]3C[C@H](O)[C@]12C [Cholic acid] | 0%
51 | C[N+](C)(C)CCO [Choline Chloride] | 0%
52 | O=C(O)C(O)C(O)C(=O)O (stereo not shown) [Choline bitartrate] | 0%
53 | O=C(O)c1cc(=O)c2ccccc2o1 [Chromocarb] | 21.6%
54 | CC(C)C(=O)OCC(=O)[C@@]12O[C@H](C3CCCCC3)O[C@@H]1C[C@H]1[C@@H]3CCC4=CC(=O)C=C[C@]4(C)[C@H]3[C@@H](O)C[C@@]12C [Ciclesonide] | 0%

Row | Compound | inhibition at 100 µM
55 | Cc1cc(C2CCCCC2)n(O)c(=O)c1 [Ciclopirox] | 22.9%
56 | Nc1ccn(C[C@@H](CO)OCP(=O)(O)O)c(=O)n1 [Cidofovir] | 0%
57 | CC1(C)C[C@@H]1C(=O)N/C(=C\CCCCSC[C@H](N)C(=O)O)C(=O)O [Cilastatin] | 0%
58 | CC(C)[C@H]1C(=O)N[C@@H](CCCN=C(N)N)C(=O)NCC(=O)N[C@@H](CC(=O)O)C(=O)N[C@H](Cc2ccccc2)C(=O)N1C [Cilengitide?trifluoroacetate] | 10.8%
59 | COCCOC(=O)C1=C(C)NC(C)=C(C(=O)OC/C=C/c2ccccc2)C1c1cccc([N+](=O)[O-])c1 (stereo not shown) [Cilnidipine] | 0%
60 | COc1ccc([C@]2(C#N)CC[C@@H](C(=O)O)CC2)cc1OC1CCCC1 [Cilomilast] | 1.61%
61 | O=C1CCc2cc(OCCCCc3nnnn3C3CCCCC3)ccc2N1 [Cilostazol] | 7.33%
62 | CN/C(=N\CCSCc1nc[nH]c1C)NC#N [Cimetidine] | 20.9%
63 | C[C@@H](NCCCc1cccc(C(F)(F)F)c1)c1cccc2ccccc12 [Cinacalcet HCl] | 4.38%
64 | CCCCOc1cc(C(=O)NCCN(CC)CC)c2ccccc2n1 [Cinchocaine] | 0%
65 | O=C(O)c1cc(-c2ccccc2)nc2ccccc12 [Cinchophen] | 17.7%
66 | COc1cc(/C=C/C(=O)N2CCN(CC(=O)N3CCCC3)CC2)cc(OC)c1OC [Cinepazide maleate] | 24.7%
67 | CCn1nc(C(=O)O)c(=O)c2cc3c(cc21)OCO3 [Cinoxacin] | 0.626%
68 | CC(C)(Oc1ccc(C2CC2(Cl)Cl)cc1)C(=O)O (stereo not shown) [Ciprofibrate] | 20.7%
69 | COc1cc(N)c(Cl)cc1C(=O)N[C@H]1CCN(CCCOc2ccc(F)cc2)C[C@H]1OC [Cisapride hydrate] | 0%
70 | COc1cc(N)c(Cl)cc1C(=O)N[C@@H]1CCN(CCCOc2ccc(F)cc2)C[C@@H]1OC [Cisapride] | 1.02%
71 | CN(C)CCCC1(c2ccc(F)cc2)OCc2cc(C#N)ccc21 (stereo not shown) [Citalopram HBr] | 0%
72 | C[N+](C)(C)CCOP(=O)(O)OP(=O)([O-])OC[C@H]1O[C@@H](n2ccc(N)nc2=O)[C@H](O)[C@@H]1O [Citicoline sodium] | 1.89%
73 | CC(=O)NC1CCSC1=O (stereo not shown) [Citiolone] | 0%
